Data set [1] relates to IMQ-induced psoriasis-like skin inflammation model. Briefly: Oral treatment in imiquimod (IMQ)-induced psoriasis-like skin inflammation. The class given is in vivo, BALB/c mice. On the procedure: The positive control, methotrexate at 2 mg/kg and tofacitinib at 5 mg/kg were administered by oral gavage twice (BID) daily during the same study period.
Fifteen (15) mg Imiquimod (IMQ) cream (5%) (Aldara; 3M Pharmaceuticals) was topically (TOP) administered once daily (QD) on the right ear one hour after treatment from Day 1 to Day 9 for 9 consecutive days, translating to a daily dose of 0.75 mg of the active compound. Ear swelling was measured on Day 0 and thereafter 30 min before dosing on Days 2, 4, 6 and 8. On Day 10, ear swelling was measured 24 hours after the last dosing.

Data set [2] has the same test system. Briefly: Topical treatment in imiquimod (IMQ)-induced psoriasis-like skin inflammation. The class given is in vivo, BALB/c mice. The conditions noted are these: 0.15% topical; during the study period. On the procedure: Dexamethasone (0.15%), the reference compound, was applied topically at 20 μL/mouse on the right ear once daily (QD) during the same study period.
Fifteen (15) mg imiquimod (IMQ) cream (5%) (Aldara; 3M Pharmaceuticals) was topically administered once daily (QD) on the right ear one hour after treatment from Day 1 to Day 9 for 9 consecutive days, translating to a daily dose of 0.75 mg of the active compound.
Ear swelling was measured on Day 0 and thereafter 30 min before dosing on Days 2, 4, 6 and 8. On Day 10, ear swelling was measured 24 hours after the last dosing.

Turning to `CN(Cc1cnc2nc(N)nc(N)c2n1)c1ccc(C(=O)N[C@@H](CCC(=O)O)C(=O)O)cc1` [methotrexate], the body weight entry in data set [1] (2 mg/kg PO BID×9 days, Day 9 to Day 10) is “significantly decreased”. The IMQ-induced ear swelling result in data set [1] (2 mg/kg oral gavage BID, Day 8, vs vehicle group) was “significant (p<0.05) effect”. In the case of `C[C@@H]1CCN(C(=O)CC#N)C[C@@H]1N(C)c1ncnc2[nH]ccc12` [Tofacitinib, tofacitinib], in data set [1] (5 mg/kg oral gavage BID, Day 8 to Day 10), the IMQ-induced ear swelling entry was “significant (p<0.05) inhibition”. As for `C[C@@H]1C[C@H]2[C@@H]3CCC4=CC(=O)C=C[C@]4(C)[C@@]3(F)[C@@H](O)C[C@]2(C)[C@@]1(O)C(=O)CO` [dexamethasone, reference compound], in data set [2], the body weight result is reported as “significant (p<0.05) decrease”.

For the origin of these results see patent US12194048B2, “Use of pyrrolopyridine derivatives for preventing or treating inflammatory diseases” (VORONOI CO., LTD., priority 2020, dated 2025).
